The subject of series [1] is pGlu-CD47. Put plainly: Flow cytometry of pGlu-CD47 (hCD47-CC2C6 binding) in Raji cells. The note with it: 100 nM, 48 h. The class given is cell-based, human. How it is done: (§1) Binding to cell surface CD47 was assessed by staining cells with fluorochrome-labeled antibodies clone CC2C6 (BioLegend, Cat. # 323102) and B6H12 (Abcam, Cat. # ab134485) to human CD47 at a dilution of 1:100 in PBS containing 1% FBS (FACS buffer) for 30 min on ice, while protected from light. SIRPα binding to CD47 was assessed by incubating cells with PE labeled recombinant human SIRPα/ CD172α Protein, Fc tag (ACRO Biosystems, Cat. # SIA-HP252) or PE labeled mouse SIRPα Protein, His tag (ACRO Biosystems, Cat. # SIA-MP2H6) for 1 hour on ice, while protected from light.

The test system of another series is senescent cells. In words: Efferocytosis of apoptotic Jurkat cells by macrophages after co-culture with senescent cells. The note with it: pretreatment, 4 days, Fig. S7. The class given is cell-based, mouse. How it is done:
Apoptotic corpse generation. Jurkat cells were cultured in a T25 flask and apoptotic corpses were inducted by exposure to 5 μM camptothecin (Tsbiochem, CAT. # t2764) for 4 hours. Apoptosis induction was confirmed by apoptoic kit (Beyotime Biotechnology, Cat. # C1062M) through flow cytometry.
Senescence induction. B16F10 Cells were plated (96-well plate: 2000 cells/well) and rested over night before exposure to 10 μM cisplatin (APExBIO, Cat. # A8321). Cisplatin exposed cells were subsequently cultured for 4 or 7 days (without media change) and senescent cells were evaluated by β-Galactosidase staining using a SA-β-Gal staining Kit (Solarbio, Cat. # G1580-100T) according to the manufacturer’s instructions. Senescent cells were identified as blue stained cells under light microscopy.
Efferocytosis after co-culture. Senescent cells were plated in 96-well plates (2000 cells/well) and inducted as described before. QPCTL inhibitors were added every other day to the cells. For co-culture conditions BMDMs were added to the senescent cells. Senescent cells and macrophages were co-cultured for 16 hours. […] Following removal of unbound corpses by washing three times with PBS, macrophages were marked with APC-labeled anti-F4/80, and the co-culture was analyzed by flow cytometry. Efferocytosis was calculated as the percentage of CFSE^+F4/80^+ cells among F4/80^+ cells.

A further series has as its system CD47/SIRPα. In words: Cell surface binding of human or mouse SIRPα protein to tumor cells (Raji, B16F10), flow cytometry. The class given is cell-based. How it is done: as §1
The next series concerns Raji cells. Put plainly: In vitro phagocytosis of Raji cells by mouse macrophages. The series is classed as cell-based, human. How it is done: Eight-week-old C57BL/6 wild-type mice were obtained from Shanghai Slaccas Laboratory Animal Co., Ltd.. To obtain bone marrow derived macrophage (BMDM), femora and tibiae were flushed with ice-cold PBS, and erythrocytes were lysed with RBC lysis buffer. Then bone marrow cells were cultured in DMEM medium with 10 % FBS and 100 U/ mL penicillin, and 100 μg/ mL streptomycin in the presence of 50 ng/ mL mouse M-CSF (Macrophage-Colony Stimulating Factor) (PeproTech), 0.1 mM Sodium pyruvate (Gibco, Cat. # 11360-70) and 10 mM HEPES (Gibco, Cat. # 15630-080) for 7 days.
Phagocytosis assay were conducted as previously described. Briefly, macrophages were plated 1 x 10^5 cells per well in a 48-well plate in complete DMEM medium, supplemented with M-CSF overnight before the experiment. Cancer cells were stained with 5 μM CFSE at 37 °C for 10 min. Each phagocytotic reaction reported in this work was performed by co-culture of target cells and macrophages for 4 hours at 37 °C. Macrophages were identified with APC-labeled anti-F4/80 (Biolegend, Cat. # 123116), and flow cytometry (BD FACSCanto II, San Jose, CA) was performed. Phagocytosis was calculated as the percentage of CFSE^+F4/80^+ cells (Q2) among CFSE^+ cells (Q2+Q3): phagocytosis (%) = [Q2 / (Q2+ Q3)] x100 %.

Series [2] has as its system pGlu-CD47. Put plainly: hCD47-CC2C6 binding to various cancer cells (H929, HCT116, Huh7, SKOV3, SU-DHL-8, T24, H1299, MCF-7). The class given is cell-based, human. The conditions noted are these: 500 nM, 48 h. Here is the method:
as §1

In series [3] the test system is pGlu-CD47. In words: Flow cytometry of pGlu-CD47 (hCD47-CC2C6 binding) in HEK293T cells. The series is classed as cell-based, human. Here is the method:
as §1

Series [4] can be described thus: In vivo toxicity in mice (blood routine, serum biochemistry, HE histology). Set-up: species or system mouse. How it is done: Briefly, male mice were implanted subcutaneously with 5 x 10^5 B16F10 cells resuspended in 100 μL of DMEM on Day 0. Anti-PD-1 antibody or mouse IgG2a isotype control was dosed at 80 µg per mouse intraperitoneally starting on day 6 after tumor implantation, followed by a once-a-week regimen. QPCTL inhibitors was intraperitoneally administered at 25 mg/kg once a day since day 6. Tumors were measured every three days, and mice were sacrificed on day 15. Mouse organs and blood were collected for blood routine, blood serum biochemistry examination and histological evaluation.
Blood routine and blood serum biochemistry examination of mice. Whole blood was collected in EDTA anticoagulant tubes for blood routine test and heparin sodium tubes for blood serum biochemistry examination. Tubes were gently inverted several times to thoroughly mix the blood and anticoagulant. The routine blood test was tested by Automatic Hematology Analyzer (TEK8500H4-0502, TECOM SCIENCE, China). Blood serum was obtained by centrifugation at 4℃ at 4000 rpm for 10 minutes. Serum creatinine (CR) was determined by CR kit (PUREBIO, Cat. # CR01), urea nitrogen (BUN) was determined by BUN kit (PUREBIO, Cat. # URE01), alanine aminotransferase (ALT) was determined by ALT kit (PUREBIO, Cat. # ALT01) and […] was determined by AST kit (PUREBIO, Cat. # AST01) according to the manufacturer’s instructions. […]

The subject of a further series is BMDM cells. In words: Cell viability and phagocytosis ability of BMDM. The class given is cell-based, mouse.

Molecules are shown by their SMILES.

With `Cn1cncc1C1CCN(c2c(C#N)cccc2-c2ccc(F)nc2)CC1` [QP5038], the “inhibitory effect on CD47 pyroglutamation compared to SEN177 and PQ912” value in the series with pGlu-CD47 [1] is reported as “superior inhibitory effects”. In addition, the “inhibitory effect of senescent cells on macrophage-mediated phagocytosis of apoptotic cells” value with senescent cells is listed as “could block the inhibitory effect”. Moreover, in the series on CD47/SIRPα, the “binding of human or mouse SIRPα protein to cell surface” value is “significantly reduced”. Further, the “phagocytosis of Raji cells” value in the series with Raji cells (10 μM inhibitor 48 h, synergized with rituximab, mouse macrophages) is recorded as “significantly boosted”. In addition, in the series on Raji cells (48 h, 10 µM), the “flow cytometry quadrant Q1” value amounted to 26.4, the “flow cytometry quadrant Q2 (CFSE+F4/80+ cells)” value is listed as 2.74, the “flow cytometry quadrant Q3” value was determined as 70.1 and the “flow cytometry quadrant Q4” value was 0.70. For the same compound, the “CD47 pyroglutamation in various types of cancer cells” value in the series on pGlu-CD47 [2] is “significantly attenuated”. The “inhibitory effect on CD47 pyroglutamation compared to SEN177 and PQ912” value in the series with pGlu-CD47 [3] (100 nM, 48 h) is recorded as “superior inhibitory effects”. For the same compound, the IC50 in the series on pGlu-CD47 [3] (Homo sapiens, HEK-293T, treatment 48 h, read-out: IC50, dose-dependent inhibition of pGlu-CD47) was determined as 3.3 ± 0.5 nM. Besides, the “organ damage (HE staining)” value in series [4] (C57B/L6 mice, 25 mg/kg daily for 15 days, Fig. S10) is recorded as “would not cause”. The abnormal blood composition result in series [4] (mice, 25 mg/kg daily, Fig. S11) is listed as “would not cause”. Also, the “cell viability of macrophages” value with BMDM cells (Fig. S8a) is listed as “did not attenuate”. For the same compound, the “phagocytotic ability of macrophages” value in the series with BMDM cells (apoptotic Jurkat cells, Fig. S8b) is listed as “did not attenuate”.

The values above are taken from publication PMC10721786, “Development of a potent benzonitrile-based inhibitor of glutaminyl-peptide cyclotransferase-like protein (QPCTL) with antitumor efficacy” (Signal Transduction and Targeted Therapy, 2023).
